Peptide text beside a SMILES is read from it. * marks the point of attachment. C18 diacid = O=C(O)CCCCCCCCCCCCCCCCC(=O)*
Experiments:
[1] = Assay (IX) pK, T½ in mini-pig; type: in vivo, Göttingen mini-pigs; details: i.v.
Summary of the method: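 Female Göttingen mini-pigs (5–12 months, 15–35 kg, fed freely) received a single i.v. dose of approximately 5 nmol/kg via central venous catheter, typically n=3. Plasma was sampled from pre-dose to 240 h (sometimes 288 h) and quantified by LC-MS. T½ was derived by non-compartmental analysis from the terminal log-linear slope (ln2/λz).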

[2] = Assay (XVI) T½ and subcutaneous bioavailability in LYD-pigs; type: in vivo
Experimental: Assay (XVI)—Determination of T½ and Subcutaneous Bioavailability in LYD-Pigs
Pharmacokinetic (PK) studies in Landrace Yorkshire Duroc crossbreed (LYD) pigs were conducted in order to determine a) the protraction of the mimylin derivative after i.v. administration, and b) the bioavailability of the mimylin derivative after s.c. administration The LYD pig were delivered, treated and acclimatised as described in ASSAY XV above.
In the i.v. and s.c. studies, the mimylin derivative was dissolved in 50 mM phosphate, 70 mM sodium chloride and 0.05% polysorbate 80, pH=8.0 to a concentration of approximately 100 nmol/mL. Animals were dosed with 2 nmol/kg s.c. and 5 nmol/kg i.v.
The animals were dosed subcutaneously or intravenously as follows. […]
The plasma concentration of the respective mimylin derivative was analysed using LC-MS. Individual plasma concentration-time profiles were analysed by a non-compartmental model in Phoenix WinNonlin version 6.3 (Pharsight Inc., Mountain View, Calif., USA).
The resulting terminal half-life was determined based on intravenous administration. T½ is the terminal half-life=In2/λz and was determined from λz, the first order rate constant associated with the terminal (log-linear) portion of the curve, estimated by linear regression of time vs. log concentration.
The absolute bioavailability (F) was calculated as follows: […]

Compound: CC(C)C[C@H](NC(=O)[C@H](C)NC(=O)[C@H](C)NC(=O)[C@@H](NC(=O)[C@H](CO)NC(=O)[C@H](CC(C)C)NC(=O)[C@H](CCC(=O)O)NC(=O)[C@H](CO)NC(=O)[C@H](C)NC(=O)[C@H](CCC(=O)O)NC(=O)CCCCCCCCCCCCCCCCC(=O)O)[C@@H](C)O)C(=O)NCC(=O)N[C@@H](CCCNC(=N)N)C(=O)N[C@@H](CC(C)C)C(=O)N[C@@H](CO)C(=O)N[C@@H](C)C(=O)N[C@@H](CCC(=O)O)C(=O)N[C@@H](CC(C)C)C(=O)N[C@@H](Cc1cnc[nH]1)C(=O)N[C@@H](CCC(=O)O)C(=O)N[C@@H](CC(C)C)C(=O)N[C@@H](C)C(=O)N[C@H](C(=O)N[C@@H](CC(C)C)C(=O)N1CCC[C@H]1C(=O)N[C@@H](CCCNC(=N)N)C(=O)N[C@H](C(=O)N[C@@H](CCC(=O)O)C(=O)N[C@H](C(=O)NCC(=O)N1CCC[C@H]1C(=O)N[C@@H](CCC(=O)O)C(=O)N[C@@H](CO)C(=O)N1CCC[C@H]1C(N)=O)[C@@H](C)O)[C@@H](C)O)[C@@H](C)O [Ex. #2, [N-terminal(C18 diacid)]mimylin] ({C18 diacid}-EASELSTAALGRLSAELHELATLPRTETGPESP-NH2)
- PK mini pig iv T½ [1]: 85 h
- Subcutaneous bioavailability (%) ([2]; LYD-pigs): 99%
- LYD-pigs iv PK, t½ ([2]; i.v., harmonic mean, n = 3): 64 h

Source: US9593149B2, “Amylin and calcitonin receptor agonist” (Novo Nordisk A/S, priority 2014, dated 2017)
